Where two headings read alike, the source gives them in different places.
How the values were obtained:
[1] = system: cytochrome c; assay type: cell-based, mouse; conditions: for cyt c (composite Z-score): normalized score vs mock-treated (DMSO) wells
[2] = system: mtOXPHOS transcripts; assay type: cell-based, mouse; conditions: for mitoOX (composite Z-score): normalized score vs mock-treated (DMSO) wells
[3] = system: C2C12 myotubes; conditions: for Viability (composite Z-score): normalized score vs mock-treated (DMSO) wells
[4] = system: cellular dehydrogenase activity; conditions: for MTT (composite Z-score): normalized score vs mock-treated (DMSO) wells
[5] = system: mitochondrial membrane potential; assay type: cell-based, mouse; conditions: for ΔΨm (composite Z-score): normalized score vs mock-treated (DMSO) wells
[6] = system: nuOXPHOS transcripts; assay type: cell-based, mouse; conditions: for nucOX (composite Z-score): normalized score vs mock-treated (DMSO) wells
[7] = system: reactive oxygen species; assay type: cell-based, mouse; conditions: for ROS (composite Z-score): normalized score vs mock-treated (DMSO) wells
[8] = system: OXPHOS gene expression; assay type: cell-based, mouse; conditions: for GE-HTS (composite Z-score): normalized score vs mock-treated (DMSO) wells
[9] = composite Z-score vs mock-treated (DMSO) wells, concentration of each compound in μM
[10] = normalized composite Z-score vs mock-treated (DMSO) wells, Conc 20 μM
[11] = Table 4, C2C12 myotubes, 48 h, composite Z-score
[12] = Table 4, C2C12 myotubes, 48 h, JC-1, composite Z-score
[13] = composite Z-score vs DMSO wells, Conc 20 μM
[14] = composite Z-score vs DMSO, Conc 20 μM
[15] = composite Z-score vs mock-treated (DMSO) wells, Conc 20 μM
[16] = 20 μM, composite Z-score vs DMSO

Sequence of cytochrome c (P62897 whole entry): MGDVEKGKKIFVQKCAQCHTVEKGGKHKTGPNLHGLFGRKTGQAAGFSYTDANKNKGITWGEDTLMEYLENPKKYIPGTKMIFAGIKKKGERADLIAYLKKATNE

colistin
cyt c [1, 9]: 0.409 | mitoOX [2, 9]: −0.939 | Viability [3, 9]: 0.940 | MTT [4, 9]: −1.283 | ΔΨm [5, 9]: −0.746 | nucOX [6, 9]: −0.016 | ROS [7, 9]: 0.501 | GE-HTS [8, 9]: −0.341

dihydromundulone [reference compound]
cyt c [1, 10]: −0.210 | mitoOX [2, 10]: 0.168 | Viability [3, 11]: 0.816 | Viability [3, 10]: 0.816 | MTT [4, 11]: 0.189 | MTT [4, 10]: 0.189 | ΔΨm [5, 12]: −0.530 | ΔΨm [5, 10]: −0.530 | nucOX [6, 10]: 0.513 | ROS [7, 11]: 0.537 | ROS [7, 10]: 0.537 | GE-HTS [8, 10]: 0.414

estrone hemisuccinate
cyt c [1, 13]: 0.250 | mitoOX [2, 13]: −0.003 | Viability [3, 13]: −0.076 | MTT [4, 13]: −0.686 | ΔΨm [5, 13]: −0.573 | nucOX [6, 13]: 0.370 | ROS [7, 13]: 0.834 | GE-HTS [8, 13]: 0.261

gentamicin sulfate
cyt c [1, 14]: −0.896 | mitoOX [2, 14]: 0.188 | Viability [3, 14]: −0.804 | MTT [4, 14]: −0.150 | ΔΨm [5, 14]: −1.213 | nucOX [6, 14]: −0.267 | ROS [7, 14]: 0.369 | GE-HTS [8, 14]: −0.117

ginkgolic acid
cyt c [1, 14]: 0.587 | mitoOX [2, 14]: 0.505 | Viability [3, 14]: −0.686 | MTT [4, 14]: −0.461 | ΔΨm [5, 14]: −0.905 | nucOX [6, 14]: −0.315 | ROS [7, 14]: −0.116 | GE-HTS [8, 14]: −0.062

isoduartin methyl ether [reference compound]
cyt c (composite Z-score) ([1]; Conc 20 μM): 0.882 | mitoOX (composite Z-score) ([2]; Conc 20 μM): −0.434 | Viability (composite Z-score) ([3]; Conc 20 μM): −0.603 | Viability [3, 11]: −0.603 | MTT (composite Z-score) ([4]; Conc 20 μM): −2.055 | MTT [4, 11]: −2.055 | ΔΨm (composite Z-score) ([5]; Conc 20 μM): −0.777 | ΔΨm [5, 12]: −0.777 | nucOX (composite Z-score) ([6]; Conc 20 μM): −0.008 | ROS (composite Z-score) ([7]; Conc 20 μM): 0.599 | ROS [7, 11]: 0.599 | GE-HTS (composite Z-score) ([8]; Conc 20 μM): −0.182

khayanthone
cyt c [1, 15]: −0.669 | mitoOX [2, 15]: 1.095 | Viability [3, 15]: 1.156 | MTT [4, 15]: −0.382 | ΔΨm [5, 15]: 0.962 | nucOX [6, 15]: 1.510 | ROS [7, 15]: 0.015 | GE-HTS [8, 15]: 1.491

mepartricin
cyt c (composite Z-score) ([1]; Conc 20 μM): 0.264 | mitoOX (composite Z-score) ([2]; Conc 20 μM): −0.464 | Viability (composite Z-score) ([3]; Conc 20 μM): −0.568 | MTT (composite Z-score) ([4]; Conc 20 μM): −1.431 | ΔΨm (composite Z-score) ([5]; Conc 20 μM): −0.309 | nucOX (composite Z-score) ([6]; Conc 20 μM): −0.728 | ROS (composite Z-score) ([7]; Conc 20 μM): −0.251 | GE-HTS (composite Z-score) ([8]; Conc 20 μM): −0.710

methyl 7-deshydroxypyrogallin-4-carboxylate
cyt c [1, 10]: 0.133 | mitoOX [2, 10]: −1.395 | Viability [3, 10]: −0.873 | MTT [4, 10]: −1.261 | ΔΨm [5, 10]: −1.695 | nucOX [6, 10]: −1.394 | ROS [7, 10]: 0.145 | GE-HTS [8, 10]: −1.502

methylorsellinic acid, ethyl ester
cyt c [1, 10]: 0.754 | mitoOX [2, 10]: −0.770 | Viability [3, 10]: 0.459 | MTT [4, 10]: −0.661 | ΔΨm [5, 10]: −0.478 | nucOX [6, 10]: −1.040 | ROS [7, 10]: −0.293 | GE-HTS [8, 10]: −0.990

muurolladie-3-one
cyt c [1, 10]: −0.234 | mitoOX [2, 10]: −0.569 | Viability [3, 10]: −0.720 | MTT [4, 10]: −1.161 | ΔΨm [5, 10]: 0.063 | nucOX [6, 10]: −0.745 | ROS [7, 10]: −0.490 | GE-HTS [8, 10]: −0.747

phytol
cyt c [1, 10]: 0.020 | mitoOX [2, 10]: −0.270 | Viability [3, 10]: −0.520 | MTT [4, 10]: −0.544 | ΔΨm [5, 10]: −0.233 | nucOX [6, 10]: −0.098 | ROS [7, 10]: 0.940 | GE-HTS [8, 10]: −0.177

polymyxin b sulfate
cyt c [1, 16]: −0.323 | mitoOX [2, 16]: −0.341 | Viability [3, 16]: 0.819 | MTT [4, 16]: −0.522 | ΔΨm [5, 16]: 0.738 | nucOX [6, 16]: −0.349 | ROS [7, 16]: 0.342 | GE-HTS [8, 16]: −0.382

pteryxin
cyt c (composite Z-score) ([1]; Conc 20 μM): 0.711 | mitoOX (composite Z-score) ([2]; Conc 20 μM): −0.108 | Viability (composite Z-score) ([3]; Conc 20 μM): −0.681 | MTT (composite Z-score) ([4]; Conc 20 μM): −1.515 | ΔΨm (composite Z-score) ([5]; Conc 20 μM): 0.300 | nucOX (composite Z-score) ([6]; Conc 20 μM): −0.097 | ROS (composite Z-score) ([7]; Conc 20 μM): 1.106 | GE-HTS (composite Z-score) ([8]; Conc 20 μM): −0.101

spiramycin
cyt c [1, 14]: 0.216 | mitoOX [2, 14]: −0.204 | Viability [3, 14]: 0.176 | MTT [4, 14]: −0.770 | ΔΨm [5, 14]: −0.686 | nucOX [6, 14]: −0.867 | ROS [7, 14]: 0.379 | GE-HTS [8, 14]: −0.691
